Our source for the IC50 values is US12384753B2, “17-beta-hydroxysteroid dehydrogenase type 13 inhibitors and methods of use thereof” (Enanta Pharmaceuticals, Inc., priority 2021, dated 2025).

This assay has as its target Recombinant human HSD17B13 (Homo sapiens (Human), UniProt Q7Z5P4). Nature of the assay: HSD17B13 rapid-fire mass spectrometry assay (RF/MS assay). The assay is classed as biochemical. The following applies: inhibition of HSD17B13; LTB4 10 μM, NAD+ 0.5 mM, RT 3 h; IC50 ranges A-E. The procedure, abridged: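 Product 12-oxo-LTB4 and substrate LTB4 quantified by RapidFire triple-quad MS in negative mode, giving percent conversion. Reaction: 80 nM recombinant hHSD17B13, 10 μM LTB4, 0.5 mM NAD+, compound up to 100 μM, pH 7.5, RT, 3 h. Variable-slope fit gave IC50; run in duplicate.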

A value given as a limit tells only on which side of the number the result lay.

Chain of Recombinant human HSD17B13 (Q7Z5P4 20-300): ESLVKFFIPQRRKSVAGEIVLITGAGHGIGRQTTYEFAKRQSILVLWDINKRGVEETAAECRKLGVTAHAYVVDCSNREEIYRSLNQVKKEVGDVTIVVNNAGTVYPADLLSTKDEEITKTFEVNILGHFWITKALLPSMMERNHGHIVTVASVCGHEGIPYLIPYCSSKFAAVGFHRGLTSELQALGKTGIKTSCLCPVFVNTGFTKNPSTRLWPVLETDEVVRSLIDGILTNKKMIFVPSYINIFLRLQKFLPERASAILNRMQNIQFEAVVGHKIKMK

Regarding `COc1cc(C(=O)O)c(F)cc1NS(=O)(=O)c1csc(-c2ccc(C3CCC(C)(C)CC3)c3[nH]ncc23)n1` [Example 541], the IC50 (in general, the midpoint of a concentration-inhibition curve) was less than 0.1 µM.

Take `COc1cc(C(=O)O)c(F)cc1NS(=O)(=O)c1csc(-c2ccc(C3=CCC(C)(C)CC3)cc2OC(F)(F)F)n1` [Example 542]: the IC50 was less than 0.1 µM.

On to `COc1cc(C(=O)O)c(F)cc1NS(=O)(=O)c1csc(-c2ccc(C3CCC(C)(C)CC3)cc2OC(F)(F)F)n1` [Example 543], for which the IC50 is less than 0.1 µM.

For the molecule `COc1cc(C(=O)O)c(F)cc1NS(=O)(=O)c1csc(-c2ccc(C3=CCC(C)(C)CC3)cc2C2CC2)n1` [Example 544], the IC50 lay within 0.1 to 0.5 µM.

As for `COc1cc(C(=O)O)c(F)cc1NS(=O)(=O)c1csc(-c2ccc(C3=CCC(C)(C)CC3)c(OC)c2F)n1` [Example 545], the IC50 was less than 0.1 µM.

`COc1cc(C(=O)O)c(F)cc1NS(=O)(=O)c1csc(-c2ccc(C3=CCC(C)(C)CC3)c(F)c2OC)n1` [Example 546]: the IC50 was less than 0.1 µM.

For the molecule `COc1cc(C(=O)O)c(F)cc1NS(=O)(=O)c1csc(-c2ccc(C3CCC(C)(C)CC3)cc2C2CC2)n1` [Example 547], the IC50 lay in the range of 0.1 to 0.5 µM.

Turning to `COc1cc(C(=O)O)c(F)cc1NS(=O)(=O)c1csc(-c2ccc(C3CCC(C)(C)CC3)c(OC)c2F)n1` [Example 548], the IC50 was less than 0.1 µM.

Turning to `COc1cc(C(=O)O)c(F)cc1NS(=O)(=O)c1csc(-c2ccc(C3CCC(C)(C)CC3)c(F)c2OC)n1` [Example 549], the IC50 lay within 0.1 to 0.5 µM.

For the molecule `COc1cc(C(=O)O)c(F)cc1NS(=O)(=O)c1csc(-c2ccc(C3CC4CCC3CC4)cc2)n1` (centres unmarked) [Example 550], the IC50 was in the range of 0.1 to 0.5 µM.

With `COc1cc(C(=O)O)c(F)cc1NS(=O)(=O)c1csc(-c2ccc(C3=CCC(C)(C)CC3)nc2)n1` [Example 551], the IC50 lay in the range of 0.1 to 0.5 µM.

`COc1cc(C(=O)O)c(F)cc1NS(=O)(=O)c1csc(-c2cnc(C3=CCC(C)(C)CC3)c(F)c2)n1` [Example 552]: the IC50 was in the range of 0.1 to 0.5 µM.

Turning to `COc1cc(C(=O)O)c(F)cc1NS(=O)(=O)c1csc(-c2ccc(C3CCC(C)(C)CC3)nc2)n1` [Example 553], the half-maximal inhibitory concentration (IC50) fell in the range of 0.1 to 0.5 µM.

Regarding `COc1cc(C(=O)O)c(F)cc1NS(=O)(=O)c1csc(-c2cnc(C3CCC(C)(C)CC3)c(F)c2)n1` [Example 554], the IC50 fell in the range of 0.1 to 0.5 µM.

For `COc1cc(C(=O)O)c(F)cc1NS(=O)(=O)c1csc(-c2ccc(C3=CCC(C)(C)CC3)cc2-c2ccc(F)cc2)n1` [Example 555], the IC50 was 0.5 to 1 µM.

For `COc1cc(C(=O)O)c(F)cc1NS(=O)(=O)c1csc(-c2ccc(C3=CCC(C)(C)CC3)cc2C)n1` [Example 556], the IC50 was less than 0.1 µM.

Turning to `COc1cc(C(=O)O)c(F)cc1NS(=O)(=O)c1csc(-c2ccc(C3=CCC(C)(C)CC3)cc2C(C)C)n1` [Example 557], the IC50 fell in the range of 0.1 to 0.5 µM.

As for `COc1cc(C(=O)O)c(F)cc1NS(=O)(=O)c1csc(-c2ccc(C3CCC(C)(C)CC3)cc2-c2ccc(F)cc2)n1` [Example 558], the IC50 was 0.1 to 0.5 µM.

Turning to `COc1cc(C(=O)O)c(F)cc1NS(=O)(=O)c1csc(-c2ccc(C3CCC(C)(C)CC3)cc2C)n1` [Example 559], the IC50 was less than 0.1 µM.

Regarding `COc1cc(C(=O)O)c(F)cc1NS(=O)(=O)c1csc(-c2ccc(C3CCC(C)(C)CC3)cc2C(C)C)n1` [Example 560], the IC50 lay within 0.1 to 0.5 µM.

In the case of `COc1cc(C(=O)O)c(F)cc1NS(=O)(=O)c1csc(-c2ccc(C(F)(F)F)nc2C2=CCC(C)(C)CC2)n1` [Example 561], the IC50 fell in the range of 1 to 100 µM.

Turning to `COc1cc(C(=O)O)c(F)cc1NS(=O)(=O)c1csc(-c2ccc(C3=CCC(C)(C)CC3)c(F)c2C)n1` [Example 562], the IC50 lay within 0.1 to 0.5 µM.

In the case of `CCc1cc(C2=CCC(C)(C)CC2)ccc1-c1nc(S(=O)(=O)Nc2cc(F)c(C(=O)O)cc2OC)cs1` [Example 563], the IC50 was less than 0.1 µM.

For `COc1cc(C(=O)O)c(F)cc1NS(=O)(=O)c1csc(-c2ccc(C3=CCC(C)(C)CC3)c(OC(C)C)c2F)n1` [Example 564], the IC50 lay in the range of 0.1 to 0.5 µM.

For `COc1cc(C(=O)O)c(F)cc1NS(=O)(=O)c1csc(-c2ccc(C3=CCC(C)(C)CC3)cn2)n1` [Example 565], the IC50 was 0.1 to 0.5 µM.

On to `COc1cc(C(=O)O)c(F)cc1NS(=O)(=O)c1csc(-c2ccc(C3CCC(C)(C)CC3)c(F)c2C)n1` [Example 566], for which the IC50 was less than 0.1 µM.

For `COc1cc(C(=O)O)c(F)cc1NS(=O)(=O)c1csc(-c2ccc(C3CCC(C)(C)CC3)c(OC(C)C)c2F)n1` [Example 567], the IC50 is less than 0.1 µM.

For `CCOc1c(C2=CCC(C)(C)CC2)ccc(-c2nc(S(=O)(=O)Nc3cc(F)c(C(=O)O)cc3OC)cs2)c1F` [Example 568], the IC50 is less than 0.1 µM.

In the case of `COc1cc(C(=O)O)c(F)cc1NS(=O)(=O)c1csc(-c2ccc(C3=CCC(C)(C)CC3)c(C)c2F)n1` [Example 569], the IC50 is less than 0.1 µM.

For the molecule `CCOc1c(C2CCC(C)(C)CC2)ccc(-c2nc(S(=O)(=O)Nc3cc(F)c(C(=O)O)cc3OC)cs2)c1F` [Example 570], the IC50 was less than 0.1 µM.

Turning to `COc1cc(C(=O)O)c(F)cc1NS(=O)(=O)c1csc(-c2ccc(C3CCC(C)(C)CC3)c(C)c2F)n1` [Example 571], the IC50 is less than 0.1 µM.

`CCc1cc(C2CCC(C)(C)CC2)ccc1-c1nc(S(=O)(=O)Nc2cc(F)c(C(=O)O)cc2OC)cs1` [Example 572]: the IC50 is less than 0.1 µM.

In the case of `COc1cc(C(=O)O)c(F)cc1NS(=O)(=O)c1csc(-c2ccc(C3CCC(C)(C)CC3)cn2)n1` [Example 573], the IC50 was in the range of 0.1 to 0.5 µM.

Take `CC[C@H]1CC[C@H](c2ccc(-c3nc(S(=O)(=O)Nc4cc5c(cc4OC)C(=O)NC5)cs3)cc2)CC1` [Example 574]: the IC50 lay within 1 to 100 µM.

For `CC[C@H]1CC[C@H](c2ccc(-c3nc(S(=O)(=O)Nc4cc5nc[nH]c(=O)c5cc4OC)cs3)cc2)CC1` [Example 575], the IC50 was in the range of 1 to 100 µM.

For the molecule `CCCOc1c(C2=CCC(C)(C)CC2)ccc(-c2nc(S(=O)(=O)Nc3cc(F)c(C(=O)O)cc3OC)cs2)c1F` [Example 576], the IC50 was in the range of 0.1 to 0.5 µM.

On to `COCCOc1c(C2=CCC(C)(C)CC2)ccc(-c2nc(S(=O)(=O)Nc3cc(F)c(C(=O)O)cc3OC)cs2)c1F` [Example 577], for which the IC50 lay in the range of 0.1 to 0.5 µM.

On to `CCCCOc1c(C2=CCC(C)(C)CC2)ccc(-c2nc(S(=O)(=O)Nc3cc(F)c(C(=O)O)cc3OC)cs2)c1F` [Example 578], for which the IC50 fell in the range of 0.1 to 0.5 µM.

As to `CCCOc1c(C2CCC(C)(C)CC2)ccc(-c2nc(S(=O)(=O)Nc3cc(F)c(C(=O)O)cc3OC)cs2)c1F` [Example 579], the IC50 was in the range of 0.1 to 0.5 µM.

On to `COCCOc1c(C2CCC(C)(C)CC2)ccc(-c2nc(S(=O)(=O)Nc3cc(F)c(C(=O)O)cc3OC)cs2)c1F` [Example 580], for which the IC50 fell in the range of 0.1 to 0.5 µM.

Consider `CCCCOc1c(C2CCC(C)(C)CC2)ccc(-c2nc(S(=O)(=O)Nc3cc(F)c(C(=O)O)cc3OC)cs2)c1F` [Example 581], for which the IC50 lay in the range of 0.1 to 0.5 µM.

Take `COc1cc(C(=O)O)c(F)cc1NS(=O)(=O)c1csc(-c2ccc(C3=CCC(C)(C)CC3)c(F)c2C(F)F)n1` [Example 582]: the IC50 is less than 0.1 µM.

Turning to `COc1cc(C(=O)O)c(F)cc1NS(=O)(=O)c1csc(-c2ccc(C3CCC(C)(C)CC3)c(F)c2C(F)F)n1` [Example 583], the IC50 is less than 0.1 µM.

As for `COc1cc(C(=O)O)c(F)cc1NS(=O)(=O)c1csc(-c2ccc(C3=CCC(C(C)C)CC3)c(OC(C)C)c2F)n1` (centres unmarked) [Example 584], the IC50 was less than 0.1 µM.

For `CCCCOc1c(C2=CCC(C(C)C)CC2)ccc(-c2nc(S(=O)(=O)Nc3cc(F)c(C(=O)O)cc3OC)cs2)c1F` (centres unmarked) [Example 585], the IC50 was 0.1 to 0.5 µM.

On to `COc1cc(C(=O)O)c(F)cc1NS(=O)(=O)c1csc(-c2ccc([C@H]3CC[C@@H](C(C)C)CC3)c(OC(C)C)c2F)n1` [Example 586], for which the IC50 lay in the range of 0.1 to 0.5 µM.

In the case of `COc1cc(C(=O)O)c(F)cc1NS(=O)(=O)c1csc(-c2ccc([C@H]3CC[C@H](C(C)C)CC3)c(OC(C)C)c2F)n1` [Example 587], the IC50 was less than 0.1 µM.

As to `CCCCOc1c(F)c(-c2nc(S(=O)(=O)Nc3cc(F)c(C(=O)O)cc3OC)cs2)ccc1[C@H]1CC[C@@H](C(C)C)CC1` [Example 588], the IC50 is 0.1 to 0.5 µM.

`CCCCOc1c(F)c(-c2nc(S(=O)(=O)Nc3cc(F)c(C(=O)O)cc3OC)cs2)ccc1[C@H]1CC[C@H](C(C)C)CC1` [Example 589]: the IC50 was 0.1 to 0.5 µM.

For `COc1cc(C(=O)O)c(F)cc1NS(=O)(=O)c1csc(-c2ccc(C3=CCC(C)(C)CC3)cc2C(F)F)n1` [Example 590], the IC50 is less than 0.1 µM.

For `COc1cc(C(=O)O)c(F)cc1NS(=O)(=O)c1csc(-c2ccc(C3CCC(C)(C)CC3)cc2C(F)F)n1` [Example 591], the IC50 is less than 0.1 µM.

As to `COc1cc(C(=O)O)c(F)cc1NS(=O)(=O)c1csc(-c2ccc(C3CC4CCC3C4)cc2)n1` (centres unmarked) [Example 592], the IC50 is 0.1 to 0.5 µM.

On to `COc1cc(C(=O)O)c(F)cc1NS(=O)(=O)c1csc(-c2ccc(C3=CCC(C(C)(C)C)CC3)c(OC(C)C)c2F)n1` (centres unmarked) [Example 593], for which the IC50 is less than 0.1 µM.

In the case of `COc1cc(C(=O)O)c(F)cc1NS(=O)(=O)c1csc(-c2ccc(C3=CCC(C(C)(C)C)CC3)c(F)c2C)n1` (centres unmarked) [Example 594], the IC50 is less than 0.1 µM.

On to `COc1cc(C(=O)O)c(F)cc1NS(=O)(=O)c1csc(-c2ccc([C@H]3CC[C@@H](C(C)(C)C)CC3)c(F)c2C)n1` [Example 595], for which the IC50 fell in the range of 0.1 to 0.5 µM.

Consider `COc1cc(C(=O)O)c(F)cc1NS(=O)(=O)c1csc(-c2ccc([C@H]3CC[C@H](C(C)(C)C)CC3)c(F)c2C)n1` [Example 596], for which the IC50 is less than 0.1 µM.

With `COc1cc(C(=O)O)c(F)cc1NS(=O)(=O)c1csc(-c2ccc([C@H]3CC[C@@H](C(C)(C)C)CC3)c(OC(C)C)c2F)n1` [Example 597], the IC50 is less than 0.1 µM.

For the molecule `COc1cc(C(=O)O)c(F)cc1NS(=O)(=O)c1csc(-c2ccc([C@H]3CC[C@H](C(C)(C)C)CC3)c(OC(C)C)c2F)n1` [Example 598], the IC50 is 0.1 to 0.5 µM.

`COc1cc(C(=O)O)c(F)cc1NS(=O)(=O)c1csc(-c2ccc(C3=CCC(C(F)(F)F)CC3)c(F)c2C)n1` (centres unmarked) [Example 599]: the IC50 was less than 0.1 µM.
